Data taken from ChEMBL document CHEMBL1141786, “Microbial transformation of curvularin” (J Nat Prod, 2005).
Calls of active or inactive are those of the source.

Experiments:
Assay type in all cases: functional, cell-based
[1] = tested on: SF-268; assay: Cytotoxicity against human SF268 cells upto 10 ug/mL by MTT assay
[2] = tested on: NCI-H460; assay: Cytotoxicity against human NCI-H460 cells upto 10 ug/mL by MTT assay
[3] = tested on: MCF7; assay: Cytotoxicity against human MCF7 cells upto 10 ug/mL by MTT assay

Measured: Activity

CO[C@H]1[C@H](O)[C@@H](O)[C@H](Oc2c(O)cc3c(c2O)C(=O)CCCCC[C@H](C)OC(=O)C3)O[C@@H]1CO
inactive: all assays above

C[C@H]1CCCCCC(=O)c2c(cc(O)cc2O[C@@H]2O[C@H](CO)[C@@H](O)[C@H](O)[C@H]2O)CC(=O)O1
inactive: all assays above

CO[C@H]1[C@H](O)[C@@H](O)[C@H](Oc2cc(O)cc3c2C(=O)CCCCC[C@H](C)OC(=O)C3)O[C@@H]1CO
inactive: all assays above
